ChEMBL document CHEMBL5512696, “Discovery of a Novel ASM Direct Inhibitor with a 1,5-Diphenyl-pyrazole Scaffold and Its Antidepressant Mechanism of Action” (J Med Chem, 2024)
Calls of active or inactive are those of the source.

How the values were obtained:
Type in all cases: functional, organism-based
Details in all cases: time 2.0 weeks
Mus musculus [1] = assay: Antidepressant activity in ICR mouse model of chronic unpredictable mild stress assessed as downregulation of neuronal apoptosis by measuring increase in BDNF protein level in hippocampus at 12 mg/kg, ip administered once a day for 1 week post 8 week of chronic unpredictable mild stress and measured after 1 week by Western blot analysis
Mus musculus [2] = assay: (§1) Antidepressant activity in ICR mouse model of chronic unpredictable mild stress assessed as reduction in sphingosine-1-phosphate level in cerebral cortex at 12 mg/kg, ip administered once a day for 1 week post 8 week of chronic unpredictable mild stress and measured after 1 week by ELISA
Mus musculus [3] = assay: Antidepressant activity in ICR mouse model of chronic unpredictable mild stress assessed as reduction in sphingosine-1-phosphate level in hippocampus at 12 mg/kg, ip administered once a day for 1 week post 8 week of chronic unpredictable mild stress and measured after 1 week by ELISA
Mus musculus [4] = assay: Antidepressant activity in ICR mouse model of chronic unpredictable mild stress assessed as reduction in sphingomyelin level in cerebral cortex at 12 mg/kg, ip administered once a day for 1 week post 8 week of chronic unpredictable mild stress and measured after 1 week by ELISA
Mus musculus [5] = assay: as §1, with “oxidative stress by measuring reduction in MDA” for “sphingosine-1-phosphate”
Mus musculus [6] = assay: Antineuroinflammatory activity in ICR mouse model of chronic unpredictable mild stress assessed as reduction in TNFalpha level in serum at 12 mg/kg, ip administered once a day for 1 week post 8 week of chronic unpredictable mild stress and measured after 1 week by ELISA
Mus musculus [7] = assay: Antineuroinflammatory activity in ICR mouse model of chronic unpredictable mild stress assessed as reduction in IL-1beta level in serum at 12 mg/kg, ip administered once a day for 1 week post 8 week of chronic unpredictable mild stress and measured after 1 week by ELISA
Mus musculus [8] = assay: Antineuroinflammatory activity in ICR mouse model of chronic unpredictable mild stress assessed as reduction in IL-6 level in serum at 12 mg/kg, ip administered once a day for 1 week post 8 week of chronic unpredictable mild stress and measured after 1 week by ELISA
Mus musculus [9] = assay: In vivo inhibition of ASM in ICR mouse model of chronic unpredictable mild stress assessed as increase in 5-HT uptake in hippocampus at 12 mg/kg, ip administered once a day for 1 week post 8 week of chronic unpredictable mild stress and measured after 1 week by ELISA

CNCCC(Oc1ccc(C(F)(F)F)cc1)c1ccccc1 (centres undefined)
active: Activity (Mus musculus [1]) | Activity (Mus musculus [2]) | Activity (Mus musculus [3]) | Activity (Mus musculus [4]) | Activity (Mus musculus [5]) | Activity (Mus musculus [6]) | Activity (Mus musculus [7]) | Activity (Mus musculus [8]) | inhibition (Mus musculus [9])
